Data as given in ChEMBL document CHEMBL2074062, “Active intestinal secretion of new quinolone antimicrobials and the partial contribution of P-glycoprotein” (J Pharm Pharmacol, 2001).

Key:
[1] = molecular target: ATP-dependent translocase ABCB1 (Homo sapiens, UniProt P08183); assay: TP_TRANSPORTER: transepithelial transport (basal to apical) in MDR1-expressing LLC-PK1 cells; format: functional, cell-based; settings: pig
[2] = molecular target: ATP-dependent translocase ABCB1 (Mus musculus, UniProt P21447); assay: TP_TRANSPORTER: decrease in intestinal clearance in mdr1a(-/-) mouse; format: functional, tissue-based, Intestine
Chain of ATP-dependent translocase ABCB1 (Mus musculus, UniProt P21447) (P21447 whole entry): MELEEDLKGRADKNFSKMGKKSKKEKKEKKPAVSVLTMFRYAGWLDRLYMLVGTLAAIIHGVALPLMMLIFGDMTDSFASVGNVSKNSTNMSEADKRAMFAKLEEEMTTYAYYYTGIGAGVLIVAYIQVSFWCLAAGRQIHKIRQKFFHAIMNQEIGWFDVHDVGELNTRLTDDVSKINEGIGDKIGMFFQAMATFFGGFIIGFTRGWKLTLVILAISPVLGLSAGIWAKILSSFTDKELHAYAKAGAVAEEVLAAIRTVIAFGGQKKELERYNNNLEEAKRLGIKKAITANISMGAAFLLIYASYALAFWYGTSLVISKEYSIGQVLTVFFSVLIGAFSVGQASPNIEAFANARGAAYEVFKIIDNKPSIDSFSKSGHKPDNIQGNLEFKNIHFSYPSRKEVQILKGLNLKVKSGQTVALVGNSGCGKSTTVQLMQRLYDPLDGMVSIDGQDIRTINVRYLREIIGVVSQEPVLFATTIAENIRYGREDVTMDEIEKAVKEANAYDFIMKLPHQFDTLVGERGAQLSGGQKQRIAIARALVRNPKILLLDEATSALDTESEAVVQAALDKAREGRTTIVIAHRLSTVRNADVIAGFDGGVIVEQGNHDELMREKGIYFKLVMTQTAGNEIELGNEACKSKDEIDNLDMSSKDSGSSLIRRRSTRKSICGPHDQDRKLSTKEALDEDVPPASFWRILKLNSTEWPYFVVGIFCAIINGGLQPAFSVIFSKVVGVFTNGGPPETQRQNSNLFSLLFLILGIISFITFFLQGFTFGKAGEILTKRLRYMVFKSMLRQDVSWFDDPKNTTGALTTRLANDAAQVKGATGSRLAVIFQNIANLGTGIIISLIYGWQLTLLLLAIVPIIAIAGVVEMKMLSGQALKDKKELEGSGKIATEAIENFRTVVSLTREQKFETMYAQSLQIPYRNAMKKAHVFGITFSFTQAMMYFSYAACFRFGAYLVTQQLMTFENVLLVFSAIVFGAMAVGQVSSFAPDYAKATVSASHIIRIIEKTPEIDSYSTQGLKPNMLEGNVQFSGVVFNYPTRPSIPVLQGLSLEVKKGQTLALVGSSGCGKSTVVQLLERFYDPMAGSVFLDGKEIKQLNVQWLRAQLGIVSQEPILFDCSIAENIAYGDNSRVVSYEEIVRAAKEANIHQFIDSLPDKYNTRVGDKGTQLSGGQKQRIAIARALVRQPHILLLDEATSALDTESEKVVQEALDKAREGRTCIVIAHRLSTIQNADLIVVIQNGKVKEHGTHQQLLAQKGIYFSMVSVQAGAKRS

Chain of ATP-dependent translocase ABCB1 (Homo sapiens, UniProt P08183) (P08183 whole entry): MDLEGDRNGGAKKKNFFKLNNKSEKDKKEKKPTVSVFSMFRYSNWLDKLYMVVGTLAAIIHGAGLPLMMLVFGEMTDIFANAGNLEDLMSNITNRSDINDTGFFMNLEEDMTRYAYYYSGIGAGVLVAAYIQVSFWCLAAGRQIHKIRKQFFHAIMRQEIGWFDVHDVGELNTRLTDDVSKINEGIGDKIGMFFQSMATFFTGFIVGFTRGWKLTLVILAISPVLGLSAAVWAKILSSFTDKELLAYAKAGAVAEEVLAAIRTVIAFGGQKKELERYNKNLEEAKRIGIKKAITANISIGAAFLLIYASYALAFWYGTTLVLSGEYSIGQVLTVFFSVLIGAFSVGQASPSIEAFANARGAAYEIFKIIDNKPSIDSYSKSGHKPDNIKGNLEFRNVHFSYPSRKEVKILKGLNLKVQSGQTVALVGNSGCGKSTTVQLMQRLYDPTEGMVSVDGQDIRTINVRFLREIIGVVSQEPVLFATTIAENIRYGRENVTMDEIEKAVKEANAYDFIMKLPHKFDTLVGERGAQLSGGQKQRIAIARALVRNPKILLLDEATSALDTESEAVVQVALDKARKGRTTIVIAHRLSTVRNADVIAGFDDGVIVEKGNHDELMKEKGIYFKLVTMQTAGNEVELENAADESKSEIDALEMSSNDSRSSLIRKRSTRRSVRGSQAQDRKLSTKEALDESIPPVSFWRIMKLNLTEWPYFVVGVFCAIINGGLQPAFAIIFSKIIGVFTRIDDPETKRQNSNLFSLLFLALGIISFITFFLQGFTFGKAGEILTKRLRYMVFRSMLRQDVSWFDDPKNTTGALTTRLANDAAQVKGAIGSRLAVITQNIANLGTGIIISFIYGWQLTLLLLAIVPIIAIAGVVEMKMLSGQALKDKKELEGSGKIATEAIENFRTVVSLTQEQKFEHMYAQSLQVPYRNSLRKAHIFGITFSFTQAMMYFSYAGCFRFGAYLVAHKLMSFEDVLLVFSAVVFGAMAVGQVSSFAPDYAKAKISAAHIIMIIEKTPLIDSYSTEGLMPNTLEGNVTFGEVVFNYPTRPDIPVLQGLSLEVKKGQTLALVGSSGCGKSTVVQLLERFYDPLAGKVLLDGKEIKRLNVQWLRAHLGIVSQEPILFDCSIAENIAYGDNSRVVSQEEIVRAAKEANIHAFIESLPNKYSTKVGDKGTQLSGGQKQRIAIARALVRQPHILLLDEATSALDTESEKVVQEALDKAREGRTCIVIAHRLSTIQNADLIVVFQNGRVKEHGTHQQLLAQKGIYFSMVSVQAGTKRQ

Q: How did the Activity [1] turn out when C[C@@H]1CN(c2c(F)c(N)c3c(=O)c(C(=O)O)cn(C4CC4)c3c2F)C[C@H](C)N1 [SPARFLOXACIN] was run?
A: The Activity was “substrate [+]”.

Q: Cc1c(F)c(N2CCNC(C)C2)cc2c1c(=O)c(C(=O)O)cn2C1CC1 (stereo not drawn) [GREPAFLOXACIN] was tested. Which Activity [1] did it give?
A: Its Activity is “substrate [+]”.

Q: And the Activity [2]?
A: Its Activity is “substrate [+]”.
